Laboratory results: patent US5428038A, “Benzopyranones, a method for producing them and uses therefor” (Dr. Willmar Schwabe GmbH & Co., priority 1991, dated 1995)

Test system: NMDA-induced death
Test: NMDA test (25 mg/kg i.v.), prevention of NMDA-induced death (neuroprotective efficacy)
Format: in vivo, male NMRI mice
Conditions: Mus musculus, po, NMDA 25 mg/kg i.v.; for responders at 50 mg/kg: 50 mg/kg p.o. 1 h before test; for responders at 50 mg/kg / responders at 100 mg/kg / responders at 25 mg/kg / responders at 5 mg/kg: read-out: Protective action (percentage of surviving animals); for responders at 100 mg/kg: 100 mg/kg p.o. 1 h before test; for responders at 25 mg/kg: 25 mg/kg p.o. 1 h before test; for responders at 5 mg/kg: 5 mg/kg p.o. 1 h before test; for ED50: 1 h, dose protecting 50% of animals against NMDA-induced death one hour after application
Protocol: In order to determine the neuroprotective and anticonvulsive activity of the compounds in accordance with the invention of the general formula I, two slightly different methods were employed as follows: […]
1. In order to determine the neuroprotective efficacy NMDA at a rate of 25 mg/kg/10 ml was administered intravenously to male NMRI mice with a body weight of 20 to 25 g. As a consequence of this application the animals suffer clonic and partly tonic convulsions, which lead to death. As a criterion for the efficacy of the investigated compounds prevention of death is used.
All animals used in the investigations had free access to food and water prior to the experiments. The test and reference substances were all administered as a suspension in 0.2% agar or water, partly by the intermediary of solution promoters such as for instance PEG-400, perorally using an esophageal probe. Control animals received the same volumes of the solvent with optional solution promoters. One hour after the application of the substance NMDA was administered intravenously and the animals observed for the occurrence of convulsions.
In table 1 the results of the tests (NMDA 25 mg i.v.) performed in accordance with method 1 are compiled with dosages of 5-100 mg of the compounds in accordance with the invention per kg of body weight as compared with known NMDA-antagonists. As a percentage efficacy the percentage of surviving animals is used.
The determination of the ED50 values was performed in accordance with the method described in Lichtfield and Wilcoxon, J. Pharmacol. exp. Therapeut. 96, 99 (1949) in each case with 4 to 5 groups of 10 animals per dosage rate.

COc1cc2oc(=O)ccc2cc1OCC(O)CN1CCN(c2cccc(C(F)(F)F)c2)CC1 (racemic) [Example 20, (±)-6-{2-hydroxy-3-[4-(3-trifluoromethylphenyl)-1-piperazinyl]propoxy}-7-methoxy-2H-1-benzopyran-2-one]
responders at 50 mg/kg: 87.5%

COc1cc2ccc(=O)oc2cc1OCC(O)CN1CCN(c2cccc(C(F)(F)F)c2)CC1 (racemic) [Example 21, (±)-7-{2-hydroxy-3-[4-(3-trifluoromethylphenyl)-1-piperazinyl]propoxy}-6-methoxy-2H-1-benzopyran-2-one]
responders at 50 mg/kg: 62.5%

COc1cc2oc(=O)ccc2cc1OCC(O)CN1CCC(c2ccccc2)CC1 (racemic) [Example 22, (±)-6-[2-hydroxy-3-(4-phenyl-1-piperidinyl)-propoxy]-7-methoxy-2H-1-benzopyran-2-one]
responders at 100 mg/kg: 37.5%

COc1cc2oc(=O)ccc2cc1OCC(O)CN1CCC(O)(c2ccccc2)CC1 (racemic) [Example 24, (±)-6-[2-hydroxy-3-(4-hydroxy-4-phenyl-1-piperidinyl)propoxy]-7-methoxy-2H-1-benzopyran-2-one]
responders at 100 mg/kg: 37.5%

COc1cc2oc(=O)ccc2cc1OCCCN1CCN(c2ccccc2)CC1 [Example 1, 7-methoxy-6-[3-(4-phenyl-1-piperazinyl)propoxy]-2H-1-benzopyran-2-one]
responders at 25 mg/kg: 100%

COc1cc2ccc(=O)oc2cc1OCCCN1CCN(c2ccccc2)CC1 [Example 2, 6-methoxy-7-[3-(4-phenyl-1-piperazinyl)propoxy]-2H-1-benzopyran-2-one]
responders at 25 mg/kg: 100%

CCOc1cc2oc(=O)ccc2cc1OCCCN1CCN(c2ccccc2)CC1 [Example 3, 7-ethoxy-6-[3-(4-phenyl-1-piperazinyl)propoxy]-2H-1-benzopyran-2-one]
responders at 5 mg/kg: 62.5%

O=c1ccc2cc(OC3CCCC3)c(OCCCN3CCN(c4ccccc4)CC3)cc2o1 [Example 5, 6-(cyclopentyloxy)-7-[3-(4-phenyl-1-piperazinyl)propoxy]-2H-1-benzopyran-2-one]
responders at 25 mg/kg: 87.5%

CCOc1cc2oc(=O)ccc2cc1OCCCN1CCN(c2ccccc2OC)CC1 [Example 7, 7-ethoxy-6-{3-[4-(2-methoxyphenyl)-1-piperazinyl]propoxy}-2H-1-benzopyran-2-one]
ED50: 0.9 mg/kg
responders at 5 mg/kg: 100%

COc1cc2oc(=O)ccc2cc1OCCCN1CCC(c2ccccc2)CC1 [Example 9, 7-methoxy-6-[3-(4-phenyl-1-piperidinyl)propoxy]-2H-1-benzopyran-2-one]
responders at 25 mg/kg: 50%

CCOc1cc2ccc(=O)oc2cc1OCCCN1CCC(c2ccccc2)CC1 [Example 11, 6-ethoxy-7-[3-(4-phenyl-1-piperidinyl)propoxy]-2H-1-benzopyran-2-one]
responders at 25 mg/kg: 62.5%

O=c1ccc2cc(OC3CCCC3)c(OCCCN3CCC(c4ccccc4)CC3)cc2o1 [Example 13, 6-(cyclopentyloxy)-7-[3-(4-phenyl-1-piperidinyl)propoxy]-2H-1-benzopyran-2-one]
responders at 25 mg/kg: 100%

COc1cc2oc(=O)c(C)c(C)c2cc1OCCCN1CCC(c2ccccc2)CC1 [Example 29, 7-methoxy-3,4-dimethyl-6-[3-(4-phenyl-1-piperidinyl)propoxy]-2H-1-benzopyran-2-one]
responders at 25 mg/kg: 87.5%

COc1cc2oc(=O)c(C)c(C)c2cc1OCCCN1CCN(Cc2ccc(Cl)cc2)CC1 [Example 30, 6-{3-[4-(4-chlorophenylmethyl)-1-piperazinyl]-propoxy}-7-methoxy-3,4-dimethyl-2H-1-benzopyran-2-one]
responders at 100 mg/kg: 37.5%

COc1cc2oc(=O)cc(C(F)(F)F)c2cc1OCCCN1CCN(c2ccccc2)CC1 [Example 31]
responders at 25 mg/kg: 87.5%

COc1cc2oc(=O)cc(C(F)(F)F)c2cc1OCCCN1CCC(c2ccccc2)CC1 [Example 32, 7-methoxy-6-[3-(4-phenyl-1-piperidinyl)propoxy]-4-(trifluoromethyl)-2H-1-benzopyran-2-one]
responders at 25 mg/kg: 62.5%

CCCc1cc(=O)oc2cc(OC)c(OCCCN3CCN(c4ccccc4)CC3)cc12 [Example 33]
ED50: 4.4 mg/kg
responders at 25 mg/kg: 100%

CCCc1cc(=O)oc2cc(OC)c(OCCCN3CCC(c4ccccc4)CC3)cc12 [Example 34, 7-methoxy-6-[3-(4-phenyl-1-piperidinyl)propoxy]-4-propyl-2H-1-benzopyran-2-one]
responders at 25 mg/kg: 75%

COc1cc2oc(=O)cc(C(C)C)c2cc1OCCCN1CCN(c2ccccc2)CC1 [Example 35, 7-methoxy-4-(1-methylethyl)-6-[3-(4-phenyl-1-piperazinyl)propoxy]-2H-1-benzopyran-2-one]
responders at 5 mg/kg: 75%

COc1cc2oc(=O)cc(C(C)C)c2cc1OCCCN1CCC(c2ccccc2)CC1 [Example 36, 7-methoxy-4-(1-methylethyl)-6-[3-(4-phenyl-1-piperidinyl)propoxy]-2H-1-benzopyran-2-one]
responders at 25 mg/kg: 50%

CCCCc1c(C)c2cc(OCCCN3CCN(c4ccccc4)CC3)c(OC)cc2oc1=O [Example 37, 3-butyl-7-methoxy-4-methyl-6-[3-(4-phenyl-1-piperazinyl)propoxy]-2H-1-benzopyran-2-one]
responders at 25 mg/kg: 100%

CCCCc1c(C)c2cc(OCCCN3CCC(c4ccccc4)CC3)c(OC)cc2oc1=O [Example 38, 3-butyl-7-methoxy-4-methyl-6-[3-(4-phenyl-1-piperidinyl)propoxy]-2H-1-benzopyran-2-one]
responders at 25 mg/kg: 87.5%

COc1cc2oc(=O)c(-c3ccccc3)c(C)c2cc1OCCCN1CCN(c2ccccc2)CC1 [Example 41, 7-methoxy-4-methyl-3-phenyl-6-[3-(4-phenyl-1-piperazinyl)propoxy]-2H-1-benzopyran-2-one]
ED50: 4.8 mg/kg
responders at 5 mg/kg: 87.5%

COc1cc2oc(=O)c3c(c2cc1OCCN1CCN(c2ccccc2)CC1)CCC3 [Example 44, 2,3-dihydro-7-methoxy-8-[2-(4-phenyl-1-piperazinyl)ethoxy]cyclopenta[c][1]benzopyran-4(1H)-one]
ED50: 4.8 mg/kg
responders at 25 mg/kg: 87.5%

COc1cc2oc(=O)c3c(c2cc1OCCCCCN1CCN(c2ccccc2)CC1)CCC3 [Example 47, 2,3-dihydro-7-methoxy-8-[5-(4-phenyl-1-piperazinyl)pentyloxy]cyclopenta[c][1]benzopyran-4(1H)-one]
responders at 5 mg/kg: 62.5%

COc1cc2oc(=O)c3c(c2cc1OCCCCN1CCC(c2ccccc2)CC1)CCC3 [Example 50, 2,3-dihydro-7-methoxy-8-[4-(4-phenyl-1-piperidinyl)butyloxy]cyclopenta[c][1]benzopyran-4(1H)-one]
responders at 25 mg/kg: 87.5%

COc1cc2oc(=O)c3c(c2cc1OCCCCCN1CCC(c2ccccc2)CC1)CCC3 [Example 51, 2,3-dihydro-7-methoxy-8-[5-(4-phenyl-1-piperidinyl)pentyloxy]cyclopenta[c][1]benzopyran-4(1H)-one]
responders at 5 mg/kg: 12.5%

COc1cc2oc(=O)c3c(c2cc1OCCCN1CCN(c2cccc(C)c2C)CC1)CCC3 [Example 53, 8-{3-[4-(2,3-dimethylphenyl)-1-piperazinyl]propoxy}-2,3-dihydro-7-methoxy-cyclopenta[c][1]benzopyran-4(1H)-one]
responders at 25 mg/kg: 50%

COc1cc2oc(=O)c3c(c2cc1OCCCN1CCN(c2ccccc2OC)CC1)CCC3 [Example 54, 2,3-dihydro-7-methoxy-8-{3-[4-(2-methoxyphenyl)-1-piperazinyl]propoxy}cyclopenta[c][1]benzopyran-4(1H)-one]
ED50: 0.4 mg/kg
responders at 5 mg/kg: 100%
